Results reported in patent US10363239B2, “Method for inhibiting growth of cancer cells” (Pain Therapeutics, Inc., priority 2013, dated 2019).
Where two headings read alike, the source gives them in different places.

How the values were obtained:
[1] = target: FLNA pentapeptide of SEQ ID NO: 1 (Bn-VAKGL) (Homo sapiens, UniProt P21333); experiment: FITC-NLX-based FLNA screening assay (inhibition of FITC-naloxone binding to Bn-VAKGL on streptavidin plates); conditions: for inhibition at 0.01 µM / inhibition at 0.1 µM / inhibition at 1 µM: 10 nM FITC-NLX
mu opiate receptor (MOR) = experiment: MOR agonist activity using [35S]GTPγS binding assay in striatal membranes; assay type: biochemical; conditions: for MOR agonist activity ([35S]GTPγS binding), FLNA-Binding Compound as Agonist 1 μM + BFNA: 1 μM compound + 1 μM β-funaltrexamine
Method in brief: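 Striatal membranes (200 μg) were preincubated 5 min at 30 °C in HEPES pH 7.5 with 100 mM NaCl, 1 mM MgCl2 and 0.5 nM [35S]GTPγS, then 5 min more with 0.1–10 μM compound. Gαo was immunoprecipitated and bound radioactivity counted by scintillation.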

[2] = read-out: Percent Binding Inhibition, FLNA-binding compound 0.01 μM
[3] = read-out: Percent Binding Inhibition, FLNA-binding compound 0.1 μM
[4] = read-out: Percent Binding Inhibition, FLNA-binding compound 1 μM
[5] = 0.1 μM compound relative to DAMGO
[6] = 1 μM compound + BFNA relative to DAMGO + BFNA
[7] = 1 μM compound relative to DAMGO
[8] = FLNA-binding compound 0.01 μM, read-out: Percent Binding Inhibition
[9] = FLNA-binding compound 0.1 μM, read-out: Percent Binding Inhibition
[10] = FLNA-binding compound 1 μM, read-out: Percent Binding Inhibition
[11] = Series C-1, 0.1 μM compound, relative to DAMGO
[12] = Series C-1, 0.1 μM compound, [35S]GTPγS binding to Gαo, striatal membranes
[13] = Series C-1, 1 μM compound + 1 μM β-FNA
[14] = Series C-1, 1 μM compound + β-FNA, relative to DAMGO + BFNA
[15] = Series C-1, 1 μM compound, relative to DAMGO
[16] = Series C-1, 1 μM compound, [35S]GTPγS binding to Gαo, striatal membranes

Compound | inhibition at 0.01 µM [1, 2] | inhibition at 0.1 µM [1, 3] | inhibition at 1 µM [1, 4] | inhibition at 0.01 µM [1, 8] | inhibition at 0.1 µM [1, 9] | inhibition at 1 µM [1, 10] | % DAMGO (0.1 μM) (mu opiate receptor (MOR); [11]) | Concentration of FLNA-Binding Compound as Agonist 0.1 μM (mu opiate receptor (MOR); [12]) | Concentration of FLNA-Binding Compound as Agonist 1 μM + BFNA (mu opiate receptor (MOR); [13]) | % DAMGO + BFNA (mu opiate receptor (MOR); [14]) | % DAMGO (1 μM) (mu opiate receptor (MOR); [15]) | Concentration of FLNA-Binding Compound as Agonist 1 μM (mu opiate receptor (MOR); [16]) | other results
CC1CCC(C(C)C)C(OCC(O)CN2CCCC2)C1 (centres unmarked) [Compound A0001] | 39.7% | 45.6% | 52.4% |  |  |  |  |  |  |  |  |  | MOR agonist activity ([35S]GTPγS binding), FLNA-Binding Compound as Agonist 0.1 μM (mu opiate receptor (MOR); 0.1 μM compound): 94.3%; % DAMGO (0.1 μM) (mu opiate receptor (MOR); [5]): 63.1%; MOR agonist activity ([35S]GTPγS binding), FLNA-Binding Compound as Agonist 1 μM (mu opiate receptor (MOR); 1 μM compound): 181.7%; MOR agonist activity ([35S]GTPγS binding), FLNA-Binding Compound as Agonist 1 μM + BFNA (mu opiate receptor (MOR)): 22.2%; % DAMGO + BFNA (mu opiate receptor (MOR); [6]): 83.8%; % DAMGO (1 μM) (mu opiate receptor (MOR); [7]): 78.9%
O=C1CNC2(CCNCC2)N1Cc1ccccc1 [Compound C0114M] | 57.1% | 63.2% | 66.7% |  |  |  |  |  |  |  |  |  | % DAMGO (0.1 μM) (mu opiate receptor (MOR); Series C-2, 0.1 μM compound, relative to DAMGO): 77.6%; MOR agonist activity, percent [35S]GTPγS binding at the stated compound concentration (mu opiate receptor (MOR); Series C-2, 0.1 μM compound, [35S]GTPγS binding to Gαo, striatal membranes): 114.0%; MOR agonist activity, percent [35S]GTPγS binding at the stated compound concentration (mu opiate receptor (MOR); Series C-2, 1 μM compound + 1 μM β-FNA): 35.9%; % DAMGO + BFNA (mu opiate receptor (MOR); Series C-2, 1 μM compound + β-FNA, relative to DAMGO + BFNA): 91.3%; % DAMGO (1 μM) (mu opiate receptor (MOR); Series C-2, 1 μM compound, relative to DAMGO): 71.4%; MOR agonist activity, percent [35S]GTPγS binding at the stated compound concentration (mu opiate receptor (MOR); Series C-2, 1 μM compound, [35S]GTPγS binding to Gαo, striatal membranes): 144.3%
OC(COc1cccc(F)c1)CN1CCc2ccccc2C1 (centres unmarked) [Compound A0055] |  |  |  | 28.1% | 32.4% | 41.8% |  |  |  |  |  |  | MOR agonist activity ([35S]GTPγS binding), FLNA-Binding Compound as Agonist 0.1 μM (mu opiate receptor (MOR); 0.1 μM compound): 89.8%; % DAMGO (0.1 μM) (mu opiate receptor (MOR); [5]): 53.2%; MOR agonist activity ([35S]GTPγS binding), FLNA-Binding Compound as Agonist 1 μM (mu opiate receptor (MOR); 1 μM compound): 195.2%; MOR agonist activity ([35S]GTPγS binding), FLNA-Binding Compound as Agonist 1 μM + BFNA (mu opiate receptor (MOR)): 33.5%; % DAMGO + BFNA (mu opiate receptor (MOR); [6]): 102.4%; % DAMGO (1 μM) (mu opiate receptor (MOR); [7]): 78.4%
C=CCN1CCC2(CC1)OCCN2S(=O)(=O)c1ccc(C)cc1 [Compound 10] |  |  |  |  |  |  |  |  |  |  |  |  | Binding to FLNA (conclusion in words) ([1]; preliminary study): bind well to FLNA; MOR agonist activity, FLNA-Binding Compound as Agonist 0.1 μM (preliminary study) (mu opiate receptor (MOR); 0.1 μM, average of two runs): 163.1%; MOR agonist activity, FLNA-Binding Compound as Agonist 1 μM + βNFA (preliminary study) (mu opiate receptor (MOR); 1 μM + βNFA, average of two runs): 60.4%; MOR agonist activity, FLNA-Binding Compound as Agonist 1 μM (preliminary study) (mu opiate receptor (MOR); 1 μM, average of two runs): 191.8%; MOR agonist activity (conclusion in words) (mu opiate receptor (MOR); preliminary study): MOR agonists
COc1ccccc1CC(O)CC1c2c(cc3c(c2OC)OCO3)CCN1C (centres unmarked) [Compound B0030] |  |  |  | 47% | 50.5% | 57.6% |  |  |  |  |  |  | % DAMGO (0.1 μM) (mu opiate receptor (MOR); Series B, 0.1 μM compound, relative to DAMGO): 62.6%; MOR agonist activity, percent [35S]GTPγS binding at the stated compound concentration (mu opiate receptor (MOR); Series B, 0.1 μM compound, [35S]GTPγS binding to Gαo, striatal membranes): 107.2%; MOR agonist activity, percent [35S]GTPγS binding at the stated compound concentration (mu opiate receptor (MOR); Series B, 1 μM compound + 1 μM β-FNA): 90.1%; % DAMGO + BFNA (mu opiate receptor (MOR); Series B, 1 μM compound + β-FNA, relative to DAMGO + BFNA): 172.9%; % DAMGO (1 μM) (mu opiate receptor (MOR); Series B, 1 μM compound, relative to DAMGO): 103.4%; MOR agonist activity, percent [35S]GTPγS binding at the stated compound concentration (mu opiate receptor (MOR); Series B, 1 μM compound, [35S]GTPγS binding to Gαo, striatal membranes): 276.1%
O=S(=O)(c1ccc(Oc2ccccc2)cc1)N1CCC2(CC1)OCCN2S(=O)(=O)c1ccc(Oc2ccccc2)cc1 [Compound C0149M] | 48.5% | 52.3% | 62% |  |  |  | 122.0% | 209.8% | 93.4% | 102.3% | 124.8% | 406.7% | 
O=S(=O)(c1ccc(Br)c(C(F)(F)F)c1)N1CCC2(CC1)OCCN2S(=O)(=O)c1ccc(Br)c(C(F)(F)F)c1 [Compound C0077] | 45.7% | 47.7% | 51% |  |  |  | 109.5% | 192.7% | 136.7% | 621.4% | 104.9% | 265.4% | 
N#Cc1ccc(S(=O)(=O)N2CCC3(CC2)OCCN3S(=O)(=O)c2ccc(C#N)cc2)cc1 [Compound C0008] |  |  |  | 42.2% | 52.3% | 54.4% | 41.4% | 71.2% | 2.8% | 4.4% | 72.9% | 201.6% | 
